Laboratory results published in paper PMC2730839 (Biochemistry, 2009).

Assays:
Format in all cases: binding
[1] = target: T1, benzoylformate decarboxylase (BFDC) (Pseudomonas putida, UniProt P20906); experiment: circular dichroism titration at […] nm
[2] = target: T1, benzoylformate decarboxylase (BFDC); experiment: X-ray crystal structure
[3] = target: T1, benzoylformate decarboxylase (BFDC); experiment: X-ray crystal structure; remark: listed apart in the source

T1 sequence (P20906 whole entry): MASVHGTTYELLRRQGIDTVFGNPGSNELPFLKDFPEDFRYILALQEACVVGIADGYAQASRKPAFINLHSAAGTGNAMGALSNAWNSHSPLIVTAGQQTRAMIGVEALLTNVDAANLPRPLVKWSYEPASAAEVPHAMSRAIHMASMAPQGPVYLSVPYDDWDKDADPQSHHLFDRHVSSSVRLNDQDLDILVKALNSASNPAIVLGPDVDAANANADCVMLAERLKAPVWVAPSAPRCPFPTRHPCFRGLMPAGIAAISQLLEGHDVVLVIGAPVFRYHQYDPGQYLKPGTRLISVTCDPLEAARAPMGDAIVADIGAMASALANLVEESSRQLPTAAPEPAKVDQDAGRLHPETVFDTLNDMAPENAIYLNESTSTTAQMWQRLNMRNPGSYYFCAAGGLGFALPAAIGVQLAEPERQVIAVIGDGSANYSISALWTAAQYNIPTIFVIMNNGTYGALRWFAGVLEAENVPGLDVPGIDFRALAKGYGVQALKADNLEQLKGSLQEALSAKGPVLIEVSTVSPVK

COP(=O)(O)C(C)=O [MAP, methyl acetylphosphonate]
Kd [1]: 5.49 mM

COP(=O)(O)C(=O)c1ccccc1 [MBP, methyl benzoylphosphonate]
Kd [2]: 0.113 mM

Cc1ncc(C[n+]2csc(CCOP(=O)([O-])OP(=O)(O)O)c2C)c(N)n1 [ThDP, thiamin diphosphate]
X-ray crystal structure (1.37 Å), seen as its adduct with MBP [3]: the observed electron density is best fit by the covalent adduct between ThDP and MBP
